According to US20040115289A1, “Cosmetic or medicinal composition containing sesquiterpene lactone or the like for treating hair -growth related disorders, and preparation method” (priority 2000, published 2004):

What was measured:
[1] = tested on: hairs in the telogenic phase; experiment: Test on the rabbit: hair growth after topical application; type: in vivo; settings: 1% solution in the same excipient as the Arnica montana extract
Protocol: Male rabbits aged at least 12 weeks and identical in age, in order for the hairs of these animals to be in the telogenic phase, which can be confirmed by shearing the animals, are used.
The test products are dissolved in pure ethanol in the proportion of a concentration of 25% (w/v). This solution is then diluted 1/10 with sweet almond oil. A concentration of active product of 2.5% is then obtained.
0.2 ml of these solutions are deposited on a gauze applied to the skin and a control, obtained by preparing the same solvent as that which was used to dissolve the active principles, is also deposited. The products and the control are left in contact with the skin for 15 minutes and then the gauze is removed. The treatment is carried out for 2 days at the rate of three applications per day at intervals of four hours.
The difference between the mean time taken by the hairs to grow on the treated parts and the control parts is subsequently evaluated.
(§1) A solution comprising 1% of pure commercial parthenolide (Aldrich, ref. 38,428-3) and a solution comprising 1% of pure commercial cnicin (Extrasynthese, ref. 8725) are prepared in the same excipient as the Arnica montana extract and are subjected to the test on the rabbit.

hairs of C57/B16 mouse = experiment: Tests on the C57/B16 mouse: hair growth after topical application; type: in vivo; settings: section on the C57/B16 mouse; 1% solution in the same excipient as the Arnica montana extract
Protocol: Female mice aged 5 weeks, all identical, are used. The mice are […] on the back, so as to render the hairs unnoticeable.
0.2 ml of one of each product in the same solvent as for the test on the rabbits and at the same concentration is deposited on the backs of the mice.
A test is thus carried out by comparison between different mice, in contrast to the test on the rabbit, where the same animal represents its own control.
The product is deposited on the back, without using gauze, once daily for 5 days in a row. […] They become visible on the second day of treatment to reach approximately 1 mm from the third day, whereas the hairs begin to grow on the control mice only from the third week after the beginning of the treatment.
as §1

C=C1C(=O)O[C@@H]2/C=C(\CO)CC/C=C(\C)C[C@H](OC(=O)C(=C)[C@@H](O)CO)[C@@H]12 [cnicin]
growth of the hairs compared with the Arnica extract [1]: approximately two times worse | growth of the hairs compared with the 2.5% Arnica extract (hairs of C57/B16 mouse): approximately two times worse
